In ChEMBL document CHEMBL1909046, “DrugMatrix in vitro pharmacology data”:
Where a SMILES comes first, the peptide text is derived from it. Bridges are numbered along the chain shown (N, C = ends). [ ]: non-standard residue; d: D form. The star is where a group is joined. Threoninol(2S,3R) = C[C@@H](O)[C@H](CO)N*

Tests used:
[1] = biological target: 5-hydroxytryptamine receptor 4 (Cavia porcellus, UniProt O70528); type: cell membranes, Dunkin-Hartley, Striatum, Membrane; note: in other assays of this panel Not Active means under 50% inhibition at 10 µM
Melanocortin receptor 3 = Melanocortin receptor 3 (Homo sapiens, UniProt P41968); type: cell membranes, Membrane; details: hek293; note: in other assays of this panel Not Active means under 50% inhibition at 10 µM
Caspase-1 = biological target: T1, Caspase-1 (Homo sapiens, UniProt P29466); parameters: species or system Escherichia coli;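 note: Caspase-1 enzyme inhibition assay with a peptide substrate; in other assays of this panel Not Active means under 50% inhibition at 10 µM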
T1 sequence (P29466 whole entry): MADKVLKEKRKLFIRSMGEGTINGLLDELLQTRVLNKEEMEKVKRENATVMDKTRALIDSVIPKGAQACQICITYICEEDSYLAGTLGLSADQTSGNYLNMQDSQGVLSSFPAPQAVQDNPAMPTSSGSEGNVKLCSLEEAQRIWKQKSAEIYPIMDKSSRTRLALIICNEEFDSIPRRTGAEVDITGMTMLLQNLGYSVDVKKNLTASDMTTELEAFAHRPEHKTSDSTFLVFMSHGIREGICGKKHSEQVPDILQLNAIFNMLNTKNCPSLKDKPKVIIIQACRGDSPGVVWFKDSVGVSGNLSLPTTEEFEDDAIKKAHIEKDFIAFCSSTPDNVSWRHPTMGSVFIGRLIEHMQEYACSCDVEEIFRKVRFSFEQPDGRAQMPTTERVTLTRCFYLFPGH

[2] = DRUGMATRIX: Potassium Channel [KATP] radioligand binding (ligand: [3H] Glyburide); type: cell membranes, Membrane; details: hit-t15; Not Active = under 50% inhibition at 10 µM
[3] = DRUGMATRIX: Glutamate, NMDA, Phencyclidine radioligand binding (ligand: [3H] TCP); type: cell membranes, Rattus norvegicus, Wistar, Cerebral cortex, Membrane; details: Not Active = under 50% inhibition at 10 µM
[4] = DRUGMATRIX: GABAA, Chloride Channel, TBOB radioligand binding (ligand: [3H] TBOB); type: cell membranes, Rattus norvegicus, Wistar, Cerebral cortex, Membrane; details: Not Active = under 50% inhibition at 10 µM

Melanocortin receptor 3, sequence (P41968 whole entry): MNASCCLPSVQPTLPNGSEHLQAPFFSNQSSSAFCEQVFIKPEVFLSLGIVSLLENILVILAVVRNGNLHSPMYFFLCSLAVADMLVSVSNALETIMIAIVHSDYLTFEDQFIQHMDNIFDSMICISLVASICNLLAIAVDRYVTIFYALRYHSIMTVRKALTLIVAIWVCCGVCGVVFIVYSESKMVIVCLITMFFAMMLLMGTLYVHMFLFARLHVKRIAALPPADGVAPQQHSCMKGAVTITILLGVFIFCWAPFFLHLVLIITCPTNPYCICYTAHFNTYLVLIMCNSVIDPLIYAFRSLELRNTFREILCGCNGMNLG
5-hydroxytryptamine receptor 4, sequence (O70528 whole entry): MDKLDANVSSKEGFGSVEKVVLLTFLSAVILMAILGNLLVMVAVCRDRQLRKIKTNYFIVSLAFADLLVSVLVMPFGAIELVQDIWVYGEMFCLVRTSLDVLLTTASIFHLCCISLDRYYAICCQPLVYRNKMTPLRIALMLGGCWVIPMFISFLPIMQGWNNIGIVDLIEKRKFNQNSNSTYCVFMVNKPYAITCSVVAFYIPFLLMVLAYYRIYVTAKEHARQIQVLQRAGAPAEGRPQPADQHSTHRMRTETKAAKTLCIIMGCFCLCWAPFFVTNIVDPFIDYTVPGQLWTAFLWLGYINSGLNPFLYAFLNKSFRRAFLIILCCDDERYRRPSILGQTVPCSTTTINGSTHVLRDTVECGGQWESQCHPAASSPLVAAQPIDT

COc1ccccc1C(=O)N1CCC(Cc2ccccc2)CC1
Not Active: IC50 [1] | IC50 (Melanocortin receptor 3) | IC50 (Caspase-1) | IC50 [2] | Ki [2] | IC50 [3] | Ki [3] | IC50 [4] | Ki [4]

Cc1ccccc1C(=O)N1CCC(Cc2ccccc2)CC1
Not Active: IC50 [1] | IC50 (Melanocortin receptor 3) | IC50 (Caspase-1) | IC50 [2] | Ki [2] | IC50 [3] | Ki [3] | IC50 [4] | Ki [4]

O=C1CC[C@H](N2C(=O)c3ccccc3C2=O)C(=O)N1
Not Active: IC50 [1] | IC50 (Melanocortin receptor 3) | IC50 (Caspase-1) | IC50 [2] | Ki [2] | IC50 [3] | Ki [3] | IC50 [4] | Ki [4]

N=C(Nc1ccccc1)Nc1ccccc1
Not Active: IC50 [1] | IC50 (Melanocortin receptor 3) | IC50 (Caspase-1) | IC50 [2] | Ki [2] | IC50 [3] | Ki [3] | IC50 [4] | Ki [4]

C[C@@H](O)[C@H](CO)NC(=O)[C@@H]1CSSC[C@H](NC(=O)[C@H](N)Cc2ccccc2)C(=O)N[C@@H](Cc2ccccc2)C(=O)N[C@H](Cc2c[nH]c3ccccc23)C(=O)N[C@@H](CCCCN)C(=O)N[C@@H]([C@@H](C)O)C(=O)N1 (H-[dF]CF[dW]KTC-{Threoninol(2S,3R)}; disulfide 2-7)
Not Active: IC50 [1] | IC50 (Melanocortin receptor 3) | IC50 (Caspase-1) | IC50 [2] | Ki [2] | IC50 [3] | Ki [3] | IC50 [4] | Ki [4]

S=C=Nc1cccc2ccccc12 [1-NAPHTHYLISOTHIOCYANATE]
Not Active: IC50 [1] | IC50 (Melanocortin receptor 3) | IC50 (Caspase-1) | IC50 [2] | Ki [2] | IC50 [3] | Ki [3] | IC50 [4] | Ki [4]

C[C@](O)(CS(=O)(=O)c1ccc(F)cc1)C(=O)Nc1ccc(C#N)c(C(F)(F)F)c1 [(R)-BICALUTAMIDE]
Not Active: IC50 [1] | IC50 (Melanocortin receptor 3) | IC50 (Caspase-1) | IC50 [2] | Ki [2] | IC50 [3] | Ki [3] | IC50 [4] | Ki [4]

CCCC(=O)Nc1ccc(OCC(O)CNC(C)C)c(C(C)=O)c1 (stereo unspecified) [ACEBUTOLOL]
Not Active: IC50 [1] | IC50 (Melanocortin receptor 3) | IC50 (Caspase-1) | IC50 [2] | Ki [2] | IC50 [3] | Ki [3] | IC50 [4] | Ki [4]

CC(=O)Nc1ccc(O)cc1 [ACETAMINOPHEN]
Not Active: IC50 [1] | IC50 (Melanocortin receptor 3) | IC50 (Caspase-1) | IC50 [2] | Ki [2] | IC50 [3] | Ki [3] | IC50 [4] | Ki [4]

COc1cc2c(c3oc(=O)c4c(c13)CCC4=O)[C@@H]1C=CO[C@@H]1O2 [AFLATOXIN]
Not Active: IC50 [1] | Ki [1] | IC50 (Melanocortin receptor 3) | Ki (Melanocortin receptor 3) | IC50 (Caspase-1) | Ki (Caspase-1) | IC50 [2] | Ki [2] | IC50 [3] | Ki [3] | IC50 [4] | Ki [4]

N=C(N)NC(=O)c1nc(Cl)c(N)nc1N [AMILORIDE]
Not Active: IC50 [1] | IC50 (Melanocortin receptor 3) | IC50 (Caspase-1) | IC50 [2] | Ki [2] | IC50 [3] | Ki [3] | IC50 [4] | Ki [4]

Cc1cc(=O)n(-c2ccccc2)n1C [ANTIPYRINE]
Not Active: IC50 [1] | IC50 (Melanocortin receptor 3) | IC50 (Caspase-1) | IC50 [2] | Ki [2] | IC50 [3] | Ki [3] | IC50 [4] | Ki [4]

CN1C(=O)COc2c(C(=O)NC3CN4CCC3CC4)cc(Cl)cc21 (stereo unspecified) [AZASETRON]
Not Active: IC50 [1] | IC50 (Melanocortin receptor 3) | IC50 (Caspase-1) | IC50 [2] | Ki [2] | IC50 [3] | Ki [3] | IC50 [4] | Ki [4]

C[C@H]1C[C@H]2[C@@H]3CCC4=CC(=O)C=C[C@]4(C)[C@@]3(Cl)[C@@H](O)C[C@]2(C)[C@@]1(O)C(=O)CO [BECLOMETHASONE]
Not Active: IC50 [1] | IC50 (Melanocortin receptor 3) | IC50 (Caspase-1) | IC50 [2] | Ki [2] | IC50 [3] | Ki [3] | IC50 [4] | Ki [4]

CCOC(=O)[C@H](CCc1ccccc1)N[C@H]1CCc2ccccc2N(CC(=O)O)C1=O [BENAZEPRIL]
Not Active: IC50 [1] | IC50 (Melanocortin receptor 3) | IC50 (Caspase-1) | IC50 [2] | Ki [2] | IC50 [3] | Ki [3] | IC50 [4] | Ki [4]

Nc1c(CC(=O)O)cccc1C(=O)c1ccc(Br)cc1 [BROMFENAC]
Not Active: IC50 [1] | IC50 (Melanocortin receptor 3) | IC50 (Caspase-1) | IC50 [2] | Ki [2] | IC50 [3] | Ki [3] | IC50 [4] | Ki [4]

CCCCN1CCCCC1C(=O)Nc1c(C)cccc1C.Cl (stereo unspecified) [BUPIVACAINE HYDROCHLORIDE]
Not Active: IC50 [1] | IC50 (Melanocortin receptor 3) | IC50 (Caspase-1) | IC50 [2] | Ki [2] | IC50 [3] | Ki [3] | IC50 [4] | Ki [4]

O=C1CC2(CCCC2)CC(=O)N1CCCCN1CCN(c2ncccn2)CC1 [BUSPIRONE]
Not Active: IC50 [1] | IC50 (Melanocortin receptor 3) | IC50 (Caspase-1) | IC50 [2] | Ki [2] | IC50 [3] | Ki [3] | IC50 [4] | Ki [4]

C[C@@]12C(=O)OC(=O)[C@]1(C)[C@H]1CC[C@@H]2O1 [CANTHARIDIN]
Not Active: IC50 [1] | IC50 (Melanocortin receptor 3) | IC50 (Caspase-1) | IC50 [2] | Ki [2] | IC50 [3] | Ki [3] | IC50 [4] | Ki [4]

C/C=C/C[C@@H](C)[C@@H](O)[C@H]1C(=O)N[C@@H](CC)C(=O)N(C)CC(=O)N(C)[C@@H](CC(C)C)C(=O)N[C@@H](C(C)C)C(=O)N(C)[C@@H](CC(C)C)C(=O)N[C@@H](C)C(=O)N[C@H](C)C(=O)N(C)[C@@H](CC(C)C)C(=O)N(C)[C@@H](CC(C)C)C(=O)N(C)[C@@H](C(C)C)C(=O)N1C [CYCLOSPORINE]
Not Active: IC50 [1] | IC50 (Melanocortin receptor 3) | IC50 (Caspase-1) | IC50 [2] | Ki [2] | IC50 [3] | Ki [3]
